According to publication PMC4920105, “Identification and Development of 2,3-Dihydropyrrolo[1,2-a]quinazolin-5(1H)-one Inhibitors Targeting Bromodomains within the Switch/Sucrose Nonfermenting Complex” (Journal of Medicinal Chemistry, 2016):
Where “and” joins values, the source holds several entries; their conditions need not be identical. Identical values can stand only once.

Experiments:
PB1(5) [1] = molecular target: T1, PB1(5) (Homo sapiens, UniProt Q86U86); test: DSF Tm shift assay, PB1(5) bromodomain; assay type: binding; details: for PB1(5) Tm (Supplementary Table 2): average of three replicates and standard deviation
T1 construct: the fifth bromodomain of PB1 (PB1(5)); made in house

BRD9A = molecular target: T2, BRD9A (Homo sapiens, UniProt Q9H8M2); test: DSF Tm shift assay, BRD9A; assay type: binding; details: single measurement
T2 construct: Bromodomain DSF Tm assays were performed; made in house
T2 sequence (Q9H8M2 136-240 limits assumed): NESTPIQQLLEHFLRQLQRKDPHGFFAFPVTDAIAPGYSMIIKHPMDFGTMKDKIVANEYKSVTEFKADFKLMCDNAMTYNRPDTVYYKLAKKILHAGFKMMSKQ
Procedure: (§1) Protein Expression and Purification.
(§2) Proteins were cloned, expressed, and purified as previously described.1 […]
(§3) Bromodomain DSF Tm assays were performed using a Mx3005p real-time PCR machine (Agilent) and low profile 96-well PCR plates (AB-0700, Life Technologies). Protein was buffered in 10 mM HEPES, pH 7.5, 500 mM NaCl and assayed at a concentration of 2 µM with 10 µM inhibitor concentration and 1:1000 SyproOrange (Invitrogen). Excitation and emission filters were set to 465 and 590 nm respectively. The temperature was raised by 3 °C per 1 min from 25–95 °C, and fluorescence readers were taken at each interval. Data analysis was carried out as described previously.2
(§4) AlphaScreen Displacement Assay.
(§5) AlphaScreen assays were based on a reported protocol, with minor variations.3 In place of a biotinylated peptide, a biotinylated ligand was used at 25 nM final concentration.
(§6) Isothermal Calorimetry Experiments.
(§7) Calorimetric experiments were performed on a VP-ITC micro-calorimeter (MicroCalTM, LLC Northampton, MA). Protein solutions were buffer exchanged by dialysis into buffer 20 mM Hepes pH 7.5, 150 mM NaCl, and 0.5 mM TCEP. All measurements were carried out at 293.15 K while stirring at 286 rpm. The micro syringe was loaded with protein solutions ranging from […]

BRPF1B = molecular target: T3, BRPF1B (Homo sapiens, UniProt P55201); test: DSF Tm shift assay, BRPF1B; assay type: binding; details: single measurement
T3 construct: Bromodomain DSF Tm assays were performed; made in house
T3 sequence (P55201 628-732 limits assumed): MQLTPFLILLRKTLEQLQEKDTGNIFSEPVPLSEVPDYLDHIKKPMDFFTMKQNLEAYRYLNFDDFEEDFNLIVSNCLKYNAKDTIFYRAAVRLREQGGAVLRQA
Procedure: as §1, §2, §3, §4, §5, §6, §7

CECR2A = molecular target: T4, CECR2A (Homo sapiens, UniProt Q9BXF3); test: DSF Tm shift assay, CECR2A; assay type: binding; details: single measurement
T4 construct: Bromodomain DSF Tm assays were performed; made in house
Procedure: as §1, §2, §3, §4, §5, §6, §7

PB1(5) [2] = molecular target: T1, PB1(5); test: Isothermal calorimetry (ITC), PB1(5) bromodomain; assay type: binding; details: for K × 10^6 (M^–1): 293.15 K
Solubility (qualitative) = assay type: physicochemical; details: chlorinated derivatives
SMARCA2B = molecular target: T5, SMARCA2B (Homo sapiens, UniProt P51531); test: Isothermal calorimetry (ITC), SMARCA2B; assay type: binding
T5 construct: made in house
Procedure: as §1, §2, §3, §4, §5, §6, §7
for the cell. All injections for PB1(5) were performed using an initial injection of 2 μl followed by 30 injections of 8 μl with a duration of 16 sec per injection and a spacing of 240 sec between injection. Injections for SMARCA2B and SMARCA4 were performed using an initial injection of 2 μl followed by 35 injections of 8 μl with a duration of 16 sec per injection and a spacing of 240 sec between injection.The data were analyzed with the MicroCal ORIGIN software package employing a single binding site model. The first data point was excluded from the analysis.
Thermodynamic parameters were calculated (ΔG = ΔH - TΔS = -RTlnKB where ΔG, ΔH and ΔS are the changes in free energy, enthalpy and entropy of binding, respectively).
Fluorescence Recovery After Photobleaching (FRAP)
FRAP studies were performed essentially as described. In brief, U2OS cells were transfected (Fugene HD; Roche) with mammalian over-expression constructs encoding GFP fused to the N-terminus of full length wild-type or mutant SMARCA2 (1). The imaging system consisted of a Zeiss LSM 710 laser-scanning and control system (Zeiss) coupled to an inverted Zeiss Axio Observer.Z1 microscope equipped with a high-numerical-aperture (N. A. 1.3) 40 x oil immersion objective (Zeiss). […] FRAP and GFP fluorescence imaging were both carried out with an argon-ion laser (488 nm) and with a PMT detector set to detect fluorescence between 500-550 nm. […] The image datasets and fluorescence recovery data were exported from ZEN 2009, the microscope control

SMARCA4 = SMARCA4 (Homo sapiens, UniProt P51532); test: Isothermal calorimetry (ITC), SMARCA4; assay type: binding
[3] = 10 μM inhibitor, average of three replicates

T1 sequence (Q86U86 653-774): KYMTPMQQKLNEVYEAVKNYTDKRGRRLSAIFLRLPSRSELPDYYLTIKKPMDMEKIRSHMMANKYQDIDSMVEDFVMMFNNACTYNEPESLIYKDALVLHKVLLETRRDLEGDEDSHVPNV
Sequence of SMARCA4 (P51532 1453-1564 limits assumed): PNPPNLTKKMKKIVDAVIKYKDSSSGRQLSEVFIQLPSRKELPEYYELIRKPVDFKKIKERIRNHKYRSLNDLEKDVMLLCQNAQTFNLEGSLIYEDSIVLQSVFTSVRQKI
T4 sequence (Q9BXF3 434-538 limits assumed): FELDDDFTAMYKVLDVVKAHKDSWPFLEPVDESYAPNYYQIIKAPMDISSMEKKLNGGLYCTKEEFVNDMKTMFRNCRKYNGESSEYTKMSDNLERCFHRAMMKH
T5 sequence (P51531 1373-1493 isoform P51531-2 limits assumed): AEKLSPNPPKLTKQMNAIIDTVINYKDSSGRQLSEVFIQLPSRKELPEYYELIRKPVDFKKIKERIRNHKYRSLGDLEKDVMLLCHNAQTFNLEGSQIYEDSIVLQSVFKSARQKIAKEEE

Row | PB1(5) Tm (Supplementary Table 2) (PB1(5) [1]) | BRD9A Tm (BRD9A) | BRPF1B Tm (BRPF1B) | CECR2A Tm (CECR2A) | ΔTm at 10 µM (PB1(5) [1]; [3]) | ΔG (PB1(5) [2]) | K × 10^6 (M^–1) (PB1(5) [2]) | SMILES | further results
1 | 3.5 ± 0.2 °C | 0.0 °C | 0.2 °C | 0.0 °C | – | – | – | CN1CCCN(/C=C2\CCn3c2nc(=O)c2ccccc23)CC1 [Compound 15] | –
2 | – | – | – | – | -0.1 ± 0.8 °C | – | – | O=c1nc2n(c3cccc(F)c13)CCC2 [Compound 17c] | –
3 | 5.0 ± 0.5 °C | 0.8 °C | 0.0 °C | 0.1 °C | – | – | – | CCN1CCN(/C=C2\CCn3c2nc(=O)c2ccccc23)CC1 [Compound 13] | –
4 | – | – | – | – | -0.1 ± 0.4 °C | – | – | O=c1nc2n(c3cccc(O)c13)CCC2 [Compound 21c] | –
5 | 4.7 ± 0.6 °C | 0.7 °C | 0.2 °C | 0.1 °C | – | – | – | CC(C)(C)OC(=O)N1CCN(/C=C2\CCn3c2nc(=O)c2ccccc23)CC1 [Compound 14] | –
6 | – | – | – | – | 3.1 ± 0.3 °C | – | – | O=c1nc2n(c3cccc(Br)c13)CCC2 [Compound 19c] | –
7 | – | – | – | – | – | -38.48 kJ/mol | 7.05 × 10^6 M^–1 | CCN1CCN(/C=C2\CCn3c2nc(=O)c2c(Cl)cccc23)CC1 [Compound 27] | TΔS (PB1(5) [2]): 19.7 kJ/mol; DMSO and aqueous solubility (Solubility (qualitative)): greatly improved
8 | – | – | – | – | 0 °C | – | – | Cc1cccc2c1c(=O)nc1n2CCC1 [Compound 16c] | –
9 | – | – | – | – | – | -38.79 kJ/mol | 8.09 × 10^6 M^–1 | CN1CCN(/C=C2\CCn3c2nc(=O)c2c(Cl)cccc23)CC1 [Compound 26] | K×10^6 (M-1) (SMARCA2B): 3.81 ×10^6 M-1; TΔS (SMARCA2B): 23.05 kJ/mol; ΔG (SMARCA2B): -36.86 kJ/mol; ΔH (SMARCA2B): -13.82 kJ/mol; K×10^6 (M-1) (SMARCA4): 2.40 ×10^6 M-1; TΔS (SMARCA4): 20.23 kJ/mol; ΔG (SMARCA4): -20.24 kJ/mol; ΔH (SMARCA4): -15.59 kJ/mol; DMSO and aqueous solubility (Solubility (qualitative)): greatly improved
10 | – | 0.2 °C | 0.0 °C | 0.1 °C | – | -33.16 kJ/mol | 0.80 × 10^6 M^–1 | O=c1nc2n(c3ccccc13)CC/C2=C\N1CCCCC1 [Compound 10, (E)-3-(Piperidin-1-ylmethylene)-2,3-dihydropyrrolo[1,2-a]quinazolin-5(1H)-one] | TΔS (PB1(5) [2]): 22.2 kJ/mol and 22.07 kJ/mol
11 | – | – | – | – | – | – | – | CCCN(/C=C1\CCn2c1nc(=O)c1ccccc12)CCC [Compound 7, (E)-3-((Dipropylamino)methylene)-2,3-dihydropyrrolo[1,2-a]quinazolin-5(1H)-one] | PB1(5) ΔTm (PB1(5) [1]; [3]): moderate activity
12 | 4.3 ± 0.4 °C | 1.0 °C | 0.0 °C | 0.2 °C | – | -31.7 kJ/mol | 0.44 × 10^6 M^–1 | O=c1nc2n(c3ccccc13)CC/C2=C\N1CCCC1 [Compound 9, (E)-3-(Pyrrolidin-1-ylmethylene)-2,3-dihydropyrrolo[1,2-a]quinazolin-5(1H)-one] | TΔS (PB1(5) [2]): 19.7 kJ/mol and 19.74 kJ/mol
